Assay results from patent US11071550B2, “Methods and devices for treating pancreatitis” (priority 2017, dated 2021).

Tests used:
mouse pancreas [1] = test system: mouse pancreas
monkey pancreas = details: 1% acetic acid
From the text: Cynomologus monkeys can be used to study the retrograde infusion protocol in primates. […] The Cynomologus monkeys are first quarantined for 30 days, then transferred to the primate facility and given a 1 to 2-week acclimatization period before operating. After acclimatization, the animals undergo a laparotomy and duodenotomy with cannulation of the ampulla of Vater and temporary clamping of the common bile duct to prevent perfusion of the liver (additional details below).
Fluoroscopic dye can also be infused to confirm the location and positioning of the catheter (FIGS. 12A and 12B). […] The catheter and clamp are then removed and the surgery completed.
Cynomologus infusion procedure details: After induction of general anesthesia, the abdomen is prepped and draped and a 10 to 12 centimeter upper abdominal midline incision created. The duodenum is fully mobilized out of the retroperitoneum and a non-crushing clamp applied to the common bile duct to prevent the composition from perfusing the bile duct and liver. A two centimeter duodenotomy is then created to expose the ampulla of Vater, which is cannulated with a 2.8 French double lumen umbilical artery catheter. A clamp is then placed on the minor papilla and catheter to prevent back leaking of the composition. […]
During the 3 to 6-week period between the procedure and the sacrifice, Cynomologus monkeys are supplied with CREON enzymes as a dietary supplement to avoid malabsorption due to loss of acinar enzyme production by the pancreas. […] Throughout the 3 to 6-week period, the Cynomologus monkeys are monitored for scleral icterus as a sign of possible biliary obstruction due to bile duct structuring caused by the infusion.
At harvest, the pancreas and duodenum are examined grossly in situ, and then removed en bloc along with the common bile duct. […] In addition, beta cell mass is calculated based on the percent insulin positive area on histology along with the gross weight of the pancreas.

[2] = test system: ligated tail of the pancreas
From the text: Mouse pancreatic duct ligation (PDL) yields a model that is reflective of chronic pancreatitis with progressive loss of islet tissue. In the PDL procedure, the pancreatic duct is ligated at the mid-point of the pancreas (FIG. 4, right image). Thus, only the distal half (tail) of the pancreas is affected since the ligation is positioned at the mid-point of the duct. […] FIGS. 5A-5E show insulin staining using DAB, whereas FIGS. 5F-5J show insulin and amylase staining using immunofluorescence (with a Hoescht counterstain for labeling cell nuclei).
The negative effects of a pancreatitis milieu on β-cell function are well known (17).
Five repeats are analyzed in each condition. […] Significance is considered when p<0.05.

mouse pancreas [3] = test system: mouse pancreas; remark: listed apart in the source
Mouse islets = assay: In vitro static glucose stimulated insulin secretion (GSIS) of isolated islets
[4] = 100% ethanol infused at 8 weeks post-PDL
[5] = 100% ethanol, 1, 3, 6, 9 months

CC(=O)O [acetic acid]
immunohistochemistry of treated pancreatic tissue (insulin, amylase) (mouse pancreas [1]; 1% acetic acid): insulin positive and amylase negative
islets (histology) (mouse pancreas [1]; 1% acetic acid): remained intact
open field testing: rearing (time pressed) vs sham group (mouse pancreas [1]; 1% acetic acid): not significantly different
exocrine tissue (mouse pancreas [1]; 1% acetic acid, 6 months (FIG. 7)): ablation of the exocrine tissue
pain (mouse pancreas [1]; 1% acetic acid, conclusion from open field testing): does not cause pain
open field testing: distance traveled vs sham group (mouse pancreas [1]; 1% acetic acid, distance in meters): not significantly different
recovery from the infusion procedure (monkey pancreas; e.g. 7 milliliters at 500 centimeters of water): recover well
ablation of the exocrine pancreas (monkey pancreas; three weeks after infusion): ablation of the exocrine pancreas in the head and body of the pancreas, and part of the tail
islets (H&E) (monkey pancreas; three weeks after infusion): intact islets

CCO [ethanol]
loss of islets in the pancreatic tail [2, 4]: prevents the loss of islets in the pancreatic tail
recurrent inflammation [2, 4]: no detectable recurrent inflammation
regeneration of acinar cells ([2]; 100% ethanol infused at 8 weeks post-PDL, insulin and amylase staining): no detectable regeneration of acinar cells
β-cell mass in the ligated tail ([2]; PDL + ethanol infusion at 8 weeks, 24 weeks, mean±SEM): 0.61±0.01 milligrams
fasting blood glucose levels vs PDL and sham operated ([2]; PDL+ethanol-infused, 24 weeks): no different
glucose tolerance testing vs PDL and sham operated ([2]; PDL+ethanol-infused, 24 weeks): no different
jaundice rates ([2]; male, C57BL/6, mouse, in vivo): less than 5%
time to significant levels of ethanol in the blood after infusion (mouse pancreas [3]; 100% ethanol pancreatic ductal infusion): ≤ 5 min
pancreatic acinar tissue upon sacrifice (mouse pancreas [3]; 100% ethanol, 100 microliters, sacrifice at 1, 3, 6, 9 months): no evidence of pancreatic acinar tissue
amylase (AMY) staining (mouse pancreas [3]; [5]): absent at all time points
pancreatic endocrine tissue (β-cells and alpha cells) (mouse pancreas [3]; [5]): well-preserved
endocrine function: in vivo insulin levels during glucose tolerance testing (mouse pancreas [3]; 100% ethanol, 9-month time point): appears normal
islet vasculature (CD31 staining) (mouse pancreas [3]; 100% ethanol, 9 months): appears to be intact
fasting glucose levels vs sham-operated controls (mouse pancreas [3]; 100% ethanol, all time points): no difference
glucose tolerance tests vs sham-operated controls (mouse pancreas [3]; 100% ethanol, all time points): no difference
body weight vs controls (mouse pancreas [3]; 100% ethanol, elemental diet): not different from controls
β-cell mass vs sham-operated (mouse pancreas [3]; 100% ethanol, pancreatic tail, any time point): no significant difference
fasting glucose levels vs sham operated controls (mouse pancreas [1]; Example 2, all time points): no difference
glucose tolerance tests vs sham operated controls (mouse pancreas [1]; Example 2, all time points): no difference
insulin secretion by islets from the pancreatic tail (in vitro GSIS) (Mouse islets; PDL+ethanol-infused tail islets, per 200 islets, low or high glucose, vs sham): normal insulin secretion pattern
endocrine function: in vitro glucose-stimulated insulin secretion (GSIS) (Mouse islets; islets from 100% ethanol-infused mice, 9-month time point): appears normal
